Patent US9504690B2, “Tetracyclic xanthene derivatives and methods of use thereof for the treatment of viral diseases” (Merck Sharp & Dohme Corp., priority 2011, dated 2016)

Assays:
HCV replicon 1a Y93H = experiment: Cell-based HCV replicon assay, 1a Y93H; settings: Hepatitis C virus, 72 h, read-out: Replicon EC50 1a Y93H
Method: (§1) To measure cell-based anti-HCV activity of selected compounds of the present invention, replicon cells were seeded at 5000 cells/well in 96-well collagen I-coated Nunc plates in the presence of the test compound. Various concentrations of test compound, typically in 10 serial 2-fold dilutions, were added to the assay mixture, with the starting concentration ranging from 250 μM to 1 μM. The final concentration of DMSO was 0.5%, fetal bovine serum was 5%, in the assay media. Cells were harvested on day 3 by the addition of 1× cell lysis buffer (Ambion cat #8721). The replicon RNA level was measured using real time PCR (Taqman assay). The amplicon was located in 5B. The PCR primers were: 5B.2F, ATGGACAGGCGCCCTGA (SEQ. ID. NO. 1); 5B.2R, […] (SEQ. ID. NO. 2); the probe sequence was FAM-labeled CACGCCATGCGCTGCGG (SEQ. ID. NO. 3). GAPDH RNA was used as endogenous control and was amplified in the same reaction as NS5B (multiplex PCR) using primers and VIC-labeled probe recommended by the manufacturer (PE Applied Biosystem). The real-time RT-PCR reactions were run on ABI PRISM 7900HT Sequence Detection System using the following program: 48° C. for 30 minutes, 95° C. for 10 minutes, 40 cycles of 95° C. for 15 sec, 60° C. for 1 minutes. The ΔCT values (CT5B-CTGAPDH) were plotted against the concentration of test compound and fitted to the sigmoid dose-response model using XLfit4 (MDL). […] Alternatively, to quantitate the absolute amount of replicon RNA, a standard curve was established by including serially diluted T7 transcripts of replicon RNA in the Taqman assay. All Taqman reagents were from PE Applied Biosystems. Such an assay procedure was described in detail in e.g. Malcolm et al., Antimicrobial Agents and Chemotherapy 50: 1013-1020 (2006).
(§2) HCV replicon assay data was calculated for selected compounds of the present invention using this method and is provided in the table below.

HCV replicon 1b WT = experiment: Cell-based HCV replicon assay, 1b WT; settings: Hepatitis C virus, 72 h; replicon cells, harvested day 3, replicon RNA by real time PCR (Taqman)
Method: as §1, §2

HCV replicon 3a WT = experiment: Cell-based HCV replicon assay, 3a WT; settings: Hepatitis C virus, 72 h; replicon cells, harvested day 3, replicon RNA by real time PCR (Taqman)
Method: as §1, §2

HCV replicon 1a WT = experiment: Cell-based HCV replicon assay, 1a WT; settings: Hepatitis C virus, 72 h; replicon cells, harvested day 3, replicon RNA by real time PCR (Taqman)
Method: as §1, §2

HCV replicon 4a WT = experiment: Cell-based HCV replicon assay, 4a WT; settings: Hepatitis C virus, 72 h; replicon cells, harvested day 3, replicon RNA by real time PCR (Taqman)
Method: as §1, §2

HCV replicon 2b WT = experiment: Cell-based HCV replicon assay, 2b WT; settings: Hepatitis C virus, 72 h; replicon cells, harvested day 3, replicon RNA by real time PCR (Taqman)
Method: as §1, §2

HCV replicon 2a WT = experiment: Cell-based HCV replicon assay, 2a WT; settings: Hepatitis C virus, 72 h; replicon cells, harvested day 3, replicon RNA by real time PCR (Taqman)
Method: as §1, §2

## COC(=O)N[C@H](C(=O)N1CC(F)(F)C[C@H]1c1ncc(-c2ccc3c(c2)Oc2ccc(-c4cnc([C@@H]5CC(F)(F)CN5C(=O)[C@@H](NC(=O)OC)C(C)C)[nH]4)c4c2N3CC4)[nH]1)C(C)C [Compound 18]
HCV replicon 1a Y93H
  EC50: 32 nM
HCV replicon 1b WT
  EC50: 0.002 nM
HCV replicon 3a WT
  EC50: 0.936 nM
HCV replicon 1a WT
  EC50: 0.009 nM
HCV replicon 4a WT
  EC50: 0.056 nM
HCV replicon 2b WT
  EC50: 40 nM

## COC(=O)N[C@H](C(=O)N1CC(F)(F)C[C@H]1c1ncc(-c2ccc3c(c2)Oc2ccc(-c4cnc([C@@H]5CC(F)(F)CN5C(=O)[C@@H](NC(=O)OC)C(C)C)[nH]4)c4c2N3CCC4)[nH]1)C(C)C [Compound 19]
HCV replicon 1b WT
  EC50: 0.003 nM
HCV replicon 3a WT
  EC50: 10 nM
HCV replicon 2a WT
  EC50: 0.53 nM
HCV replicon 1a WT
  EC50: 0.1 nM
HCV replicon 4a WT
  EC50: 0.17 nM
HCV replicon 2b WT
  EC50: 122 nM

## COC(=O)N[C@H](C(=O)N1CCC[C@H]1c1ncc(-c2ccc3c(c2)Oc2ccc(-c4cnc([C@@H]5CCCN5C(=O)[C@@H](NC(=O)OC)C(C)(C)C)[nH]4)c4ccn-3c24)[nH]1)C(C)(C)C [Compound 2, Methyl [(2S)-1-{(2S)-2-[5-(3-(2-[(2S)-1-(2S)-2-[(methoxycarbonyl)amino]-3,3-di-methylbutanoyl}pyrrolidin-2-yl]-1H-imidazol-5-ylpyrrolo[3,2,1-kl]phenoxazin-8-yl)-1H-imidazol-2-yl]pyrrolidin-1-yl)-3,3-dimethyl-1-oxobutan-2-yl]carbamate]
HCV replicon 1a Y93H
  EC50: 454 nM
HCV replicon 1b WT
  EC50: 0.00443 nM
HCV replicon 3a WT
  EC50: 1.26 nM
HCV replicon 2a WT
  EC50: 0.018 nM
HCV replicon 1a WT
  EC50: 0.0736 nM
HCV replicon 4a WT
  EC50: 4.91 nM

## COC(=O)N[C@H](C(=O)N1CCC[C@H]1c1ncc(-c2ccc3c(c2)Oc2cc(-c4cnc([C@@H]5CCCN5C(=O)[C@@H](NC(=O)OC)C(C)C)[nH]4)cc4c2N3CCC4)[nH]1)C(C)C [Compound 11, Methyl [(2S)-1-{(2S)-2-[5-(5-{2-[(2S)-1-{(2S)-2-[(methoxycarbonyl)amino]-3-methylbutanoyl}pyrrolidin-2-yl]-1H-imidazol-5-yl}-2,3-dihydro-1H-pyrido[3,2,1-kl]phenoxazin-9-yl)-1H-imidazol-2-yl]pyrrolidin-1-yl}-3-methy-1-oxobutan-2-yl]carbamate]
HCV replicon 1a Y93H
  EC50: 504 nM
HCV replicon 1b WT
  EC50: 0.031 nM
HCV replicon 3a WT
  EC50: 10 nM
HCV replicon 2a WT
  EC50: 0.345 nM
HCV replicon 1a WT
  EC50: 0.1 nM
HCV replicon 4a WT
  EC50: 1.02 nM

## COC(=O)N[C@H](C(=O)N1C[C@H](F)C[C@H]1c1ncc(-c2ccc3c(c2)Oc2ccc(-c4cnc([C@@H]5C[C@@H](F)CN5C(=O)[C@@H](NC(=O)OC)C(C)C)[nH]4)c4ccn-3c24)[nH]1)C(C)C [Compound 9, Methyl [(2S)-1-{(2S,4R)-4-fluoro-2-[5-(3-{2-[(2S,4R)-4-fluoro-1-{(2S)-2-[(methoxycarbonyl)amino]-3-methylbutanoyl}pyrrolidin-2-yl]-1H-imidazol-5-yl}pyrrolo[3,2,1-kl]phenoxazin-8-yl)-1H-imidazol-2-yl]pyrrolidin-1-yl}-3-methyl-1-oxobutan-2-yl]carbamate]
HCV replicon 1a Y93H
  EC50: 27.5 nM
HCV replicon 1b WT
  EC50: 0.005 nM
HCV replicon 3a WT
  EC50: 1.5 nM
HCV replicon 1a WT
  EC50: 0.01 nM
HCV replicon 4a WT
  EC50: 0.1 nM

## COC(=O)N[C@H](C(=O)N1CCC[C@H]1c1ncc(-c2cc3c4c(c2)Oc2ccc(-c5cnc([C@@H]6CCCN6C(=O)[C@@H](NC(=O)OC)C(C)C)[nH]5)cc2C4CO3)[nH]1)C(C)C (stereo partly drawn) [Compound 15, Methyl [(2S)-1-{(2S)-2-[5-(4-{2-[(2S)-1-{(2S)-2-[(methoxycarbonyl)amino]-3-methylbutanoyl}pyrrolidin-2-yl]-1H-imidazol-5-yl}-1,10b-dihydrofuro[2,3,4-kl]xanthen-9-yl)-1H-imidazol-2-yl]pyrrolidin-1-yl}-3-methyl-1-oxobutan-2-yl]carbamate]
HCV replicon 1a Y93H
  EC50: 83 nM
HCV replicon 1b WT
  EC50: 0.004 nM
HCV replicon 3a WT
  EC50: 0.52 nM
HCV replicon 1a WT
  EC50: 0.06 nM
HCV replicon 4a WT
  EC50: 0.39 nM

## COC(=O)N[C@H](C(=O)N1CC(F)(F)C[C@H]1c1ncc(-c2ccc3c(c2)Oc2ccc(-c4cnc([C@@H]5CC(F)(F)CN5C(=O)[C@@H](NC(=O)OC)C(C)C)[nH]4)c4ccn-3c24)[nH]1)C(C)C [Compound 8, Methyl [(2S)-1-{(2S)-2-[5-(3-{2-[(2S)-4,4-difluoro-1-{(2S)-2-[(methoxycarbonyl)amino]-3-methylbutanoyl}pyrrolidin-2-yl]-1H-imidazol-5-yl}pyrrolo[3,2,1-kl]phenoxazin-8-yl)-1H-imidazol-2-yl]-4,4-difluoropyrrolidin-1-yl}-3-methyl-1-oxobutan-2-yl]carbamate]
HCV replicon 1a Y93H
  EC50: 11.5 nM
HCV replicon 1b WT
  EC50: 0.001 nM
HCV replicon 3a WT
  EC50: 0.31 nM
HCV replicon 1a WT
  EC50: 0.004 nM
HCV replicon 4a WT
  EC50: 0.019 nM

## COC(=O)N[C@H](C(=O)N1CCC[C@H]1c1ncc(-c2ccc3c(c2)-n2ccc4c(-c5cnc([C@@H]6CCCN6C(=O)[C@@H](NC(=O)OC)C(C)C)[nH]5)ccc(c42)O3)[nH]1)C(C)C [Compound 5, Methyl [(2S)-1-{(2S)-2-[5-(3-{2-[(2S)-1-{(2S)-2-[(methoxycarbonyl)amino]-3-methyl-butanoyl}pyrrolidin-2-yl]-1H-imidazol-5-yl}pyrrolo[3,2,1-kl]phenoxazin-9-yl)-1H-imidazol-2-yl]pyrrolidin-1-yl}-3-methyl-1-oxobutan-2-yl]carbamate]
HCV replicon 1b WT
  EC50: 19 nM
HCV replicon 2a WT
  EC50: 20 nM
HCV replicon 1a WT
  EC50: > 26 nM

## COC(=O)N[C@H](C(=O)N1CCC[C@H]1c1ncc(-c2ccc3c(c2)Oc2ccc(-c4cnc([C@@H]5CCCN5C(=O)[C@@H](NC(=O)OC)C5CC5)[nH]4)c4ccn-3c24)[nH]1)C1CC1 [Compound 4, Dimethyl (pyrrolo[3,2,1-kl]phenoxazine-3,8-diylbis{1H-imidazole-5,2-diyl(2S)-pyrrolidine-2,1-diyl[(1S)-1-cyclopropyl-2-oxoethane-2,1-diyl]})biscarbamate]
HCV replicon 1a Y93H
  EC50: 64.4 nM
HCV replicon 1b WT
  EC50: 0.006 nM
HCV replicon 3a WT
  EC50: 1.9 nM
HCV replicon 2a WT
  EC50: 0.012 nM
HCV replicon 1a WT
  EC50: 0.007 nM
HCV replicon 4a WT
  EC50: 3.12 nM

## COC(=O)N[C@@H](C(=O)N1CCC[C@H]1c1ncc(-c2ccc3c(c2)Oc2ccc(-c4cnc([C@@H]5CCCN5C(=O)[C@H](NC(=O)OC)c5ccccc5)[nH]4)c4ccn-3c24)[nH]1)c1ccccc1 [Compound 3, Dimethyl (pyrrolo[3,2,1-kl]phenoxazine-3,8-diylbis{1H-imidazole-5,2-diyl(2S)pyrrolidine-2,1-diyl[(1R)-2-oxo-1-phenylethane-2,1-diyl]})biscarbamate]
HCV replicon 1a Y93H
  EC50: 348 nM
HCV replicon 1b WT
  EC50: 0.007 nM
HCV replicon 3a WT
  EC50: 0.019 nM
HCV replicon 2a WT
  EC50: 0.006 nM
HCV replicon 1a WT
  EC50: 0.097 nM
HCV replicon 4a WT
  EC50: 0.04 nM

## COC(=O)N[C@H](C(=O)N1CCC[C@H]1c1ncc(-c2ccc3c(c2)Oc2cc(-c4cnc([C@@H]5CCCN5C(=O)[C@@H](NC(=O)OC)C(C)C)[nH]4)cc4c2N3CC4)[nH]1)C(C)C [Compound 7, Methyl [(2S)-1-{(2S)-2-[5-(4-{2-[(2S)-1-{(2S)-2-[(methoxycarbonyl)amino]-3-methylbutanoyl}pyrrolidin-2-yl]-1H-imidazol-5-yl}-1,2-dihydropyrrolo[3,2,1-kl]phenoxazin-8-yl)-1H-imidazol-2-yl]pyrrolidin-1-yl}-3-methyl-1-oxobutan-2-yl]carbamate]
HCV replicon 1a Y93H
  EC50: 263 nM
HCV replicon 1b WT
  EC50: 0.044 nM
HCV replicon 3a WT
  EC50: 1.1 nM
HCV replicon 2a WT
  EC50: 0.063 nM
HCV replicon 1a WT
  EC50: 0.1 nM
HCV replicon 4a WT
  EC50: 1.05 nM

## COC(=O)N[C@H](C(=O)N1CCC[C@H]1c1ncc(-c2cc3c4c(c2)Oc2ccc(-c5cnc([C@@H]6CCCN6C(=O)[C@@H](NC(=O)OC)C(C)C)[nH]5)cc2N4CCC3)[nH]1)C(C)C [Compound 12, Methyl [(2S)-1-{(2S)-2-[5-(5-{2-[(2S)-1-{(2S)-2-[(methoxycarbonyl)amino]-3-methylbutanoyl}pyrrolidin-2-yl]-1H-imidazol-5-yl}-2,3-dihydro-1H-pyrido[3,2,1-kl]phenoxazin-10-yl)-1H-imidazol-2-yl]pyrrolidin-1-yl}-3-methyl-1-oxobutan-2-yl]carbamate]
HCV replicon 1a Y93H
  EC50: 115 nM
HCV replicon 1b WT
  EC50: 0.003 nM
HCV replicon 3a WT
  EC50: 0.375 nM
HCV replicon 2a WT
  EC50: 0.002 nM
HCV replicon 1a WT
  EC50: 0.056 nM
HCV replicon 4a WT
  EC50: 0.13 nM

## COC(=O)N[C@H](C(=O)N1CCC[C@H]1c1ncc(-c2ccc3c(c2)Oc2ccc(-c4cnc([C@@H]5CCCN5C(=O)[C@@H](NC(=O)OC)C(C)C)[nH]4)c4cnn-3c24)[nH]1)C(C)C [Compound 10, Methyl [(2S)-1-{(2S)-2-[5-(3-{2-[(2S)-1-{(2S)-2-[(methoxycarbonyl)amino]-3-methylbutanoyl}pyrrolidin-2-yl]-1H-imidazol-5-yl}pyrazolo[4,5,1-kl]phenoxazin-8-yl)-1 H-imidazol-2-yl]pyrrolidin-1-yl}-3-methyl-1-oxobutan-2-yl]carbamate]
HCV replicon 1a Y93H
  EC50: 35.1 nM
HCV replicon 1b WT
  EC50: 0.005 nM
HCV replicon 3a WT
  EC50: 0.69 nM
HCV replicon 2a WT
  EC50: 0.003 nM
HCV replicon 1a WT
  EC50: 0.027 nM
HCV replicon 4a WT
  EC50: 0.37 nM
HCV replicon 2b WT
  EC50: 49 nM
